Numbered stars: 1 amine (or outer) side, 2 acyl side, 3 side chain; on linkers, the order of the positions; unused ones are H or OH. Bridge positions count the residues as written; N and C are the ends. Square brackets hold non-standard residues; d marks the D form. Peptide text beside a SMILES is read from it. * marks the point of attachment. C20 diacid = O=C(O)CCCCCCCCCCCCCCCCCCC(=O)*; γGlu = O=C(O)[C@H](CCC(=O)[*:2])N[*:1]; Hyp = O=C(O)[C@@H]1C[C@@H](O)CN1
How the values were obtained:
[1] = Physical stability of peptide analogues (Thioflavin T fibrillation); assay type: physicochemical; settings: maximum ThT signal normalized between hAMY maximum and buffer background; 40° C., shaking, four days; pH 7 per table title
Protocol: General Protocols for Determination of Physical Stability of Peptide Analogues
Peptides were dissolved in buffers (50 mM sodium acetate at pH 4 or 50 mM sodium phosphate at pH 7) and incubated for one hour. The samples were then divided into two replicates of 80 μl in a black 384 well plate (μ-clear, Greiner Bio-One) and mixed with Thioflavin T (ThT) to a final concentration of 4 μM. The plate was sealed and placed in a plate reader (CLARIOstar, BMG) where the temperature was set at 40° C. during the course of the experiment. The samples were further stressed by shaking the plate at 700 rpm (linear) for five minutes before every measurement. The fluorescence was measured every 10 min for four days by exciting the ThT at 450 nm and measuring the emission at 480 nm. For each peptide, the ThT signal over time was smoothened using Local Polynomial Regression fitting (LOESS) as implemented in the statistical programming environment R. For the smoothened data, the maximum ThT signal was normalized in percent between the maximum ThT signal for hAMY and the buffer background.

[2] = biological target: T1, hAMY3 receptor (Homo sapiens, UniProt O60896+P30988); assay: cAMP assay for in vitro receptor activation, hAMY3-R; assay type: cell-based; settings: cAMP assay, hAMY3 receptor; read-out: hAMY3R EC50
T1 sequence (P30988 25-474): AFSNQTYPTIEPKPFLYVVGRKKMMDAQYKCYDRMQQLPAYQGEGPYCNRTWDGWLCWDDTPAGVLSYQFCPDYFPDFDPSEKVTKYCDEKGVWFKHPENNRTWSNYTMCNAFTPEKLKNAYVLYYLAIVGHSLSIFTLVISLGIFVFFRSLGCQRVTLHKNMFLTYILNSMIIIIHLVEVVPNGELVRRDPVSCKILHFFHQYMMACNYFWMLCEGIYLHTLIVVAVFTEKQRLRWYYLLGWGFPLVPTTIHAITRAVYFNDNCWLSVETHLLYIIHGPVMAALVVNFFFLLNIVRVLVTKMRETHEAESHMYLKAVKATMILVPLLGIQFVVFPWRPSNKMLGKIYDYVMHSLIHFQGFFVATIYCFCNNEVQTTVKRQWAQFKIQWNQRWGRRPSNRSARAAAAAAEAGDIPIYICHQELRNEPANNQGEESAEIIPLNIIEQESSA
T1 sequence (O60896 24-148 partner): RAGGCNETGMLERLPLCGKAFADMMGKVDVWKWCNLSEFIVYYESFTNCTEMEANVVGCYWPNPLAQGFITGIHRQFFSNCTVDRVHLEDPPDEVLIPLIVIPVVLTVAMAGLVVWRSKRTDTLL
Outline: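 Receptor activation was measured as cAMP accumulation in a monoclonal cell line stably overexpressing hAMY3. Stimulation with graded doses lasted 30 min at room temperature in the presence of 0.5 mM IBMX, with human amylin as positive control.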

Row | SMILES | Max ThT signal (%) [1] | EC50 [2]
1 | CC[C@H](C)[C@H](NC(=O)[C@H](C)NC(=O)CNC(=O)[C@H](CC(=O)O)NC(=O)[C@H](CCCCN)NC(=O)[C@H](CC(=O)O)NC(=O)[C@@H](NC(=O)[C@H](Cc1ccccc1)NC(=O)[C@H](CCC(N)=O)NC(=O)[C@H](Cc1ccc(O)cc1)NC(=O)[C@H](CC(C)C)NC(=O)[C@H](Cc1ccccc1)NC(=O)[C@H](Cc1c[nH]cn1)NC(=O)[C@H](C)NC(=O)[C@H](CC(C)C)NC(=O)[C@H](CCCNC(=N)N)NC(=O)[C@H](CCC(N)=O)NC(=O)[C@@H](NC(=O)[C@@H](NC(=O)[C@@H]1CSSC[C@H](NC(=O)CN)C(=O)N[C@@H](CCCNC(=N)N)C(=O)N[C@@H](Cc2ccccc2)C(=O)NCC(=O)N[C@@H]([C@@H](C)O)C(=O)N1)[C@@H](C)O)C(C)C)[C@@H](C)O)C(=O)N[C@@H](C)C(=O)N1CCC[C@H]1C(=O)N[C@@H](CCCNC(=N)N)C(=O)N[C@H](C(=O)N[C@@H](CCCCN)C(=O)N[C@H](C(=O)NCC(=O)N[C@@H](CO)C(=O)N[C@@H](CCC(N)=O)C(=O)NCC(=O)N[C@@H](Cc1ccc(O)cc1)C(N)=O)[C@@H](C)CC)[C@@H](C)O [compound 123] (H-GCRFGTCTVQRLAHFLYQFTDKDGAIAPRTKIGSQGY-NH2; disulfide 2-7; N-terminus assumed) | – | 0.027 nM
2 | CC[C@H](C)[C@H](NC(=O)[C@H](CCC(N)=O)NC(=O)[C@H](Cc1c[nH]cn1)NC(=O)[C@H](C)NC(=O)[C@H](CC(C)C)NC(=O)[C@H](CCCNC(=N)N)NC(=O)[C@H](CCC(N)=O)NC(=O)[C@@H](NC(=O)[C@@H](NC(=O)[C@@H]1CSSC[C@H](NC(=O)[C@H](CCCCN)NC(=O)CC[C@H](NC(=O)CCCCCCCCCCCCCCCCCCC(=O)O)C(=O)O)C(=O)N[C@@H](CC(N)=O)C(=O)N[C@@H]([C@@H](C)O)C(=O)N[C@@H](C)C(=O)N[C@@H]([C@@H](C)O)C(=O)N1)[C@@H](C)O)C(C)C)C(=O)N[C@@H](Cc1ccc(O)cc1)C(=O)N[C@@H](CCC(N)=O)C(=O)N[C@@H](Cc1ccccc1)C(=O)N[C@H](C(=O)N[C@@H](CC(N)=O)C(=O)N[C@@H](CCCCN)C(=O)N[C@@H](CC(=O)O)C(=O)N[C@@H](CCCCN)C(=O)N[C@@H](CC(=O)O)C(=O)N[C@@H](CC(N)=O)C(=O)N[C@H](C(=O)N[C@@H](C)C(=O)N1CCC[C@H]1C(=O)N1CCC[C@H]1C(=O)N[C@H](C(=O)N[C@@H](CC(N)=O)C(=O)N[C@H](C(=O)NCC(=O)N[C@@H](CO)C(=O)N[C@@H](CC(N)=O)C(=O)NCC(=O)N1C[C@H](O)C[C@H]1C(N)=O)C(C)C)[C@@H](C)O)C(C)C)[C@@H](C)O [compound 82] ({C20 diacid-γGlu}-KCNTATCTVQRLAHQIYQFTNKDKDNVAPPTNVGSNG[Hyp]-NH2; disulfide 2-7) | – | 0.015 nM

Other lines, results leading:

Row | Max ThT signal (%) [1] | EC50 [2] | SMILES
3 | 8.900% | – | CC[C@H](C)[C@H](NC(=O)[C@H](CCC(N)=O)NC(=O)[C@H](Cc1c[nH]cn1)NC(=O)[C@H](C)NC(=O)[C@H](CC(C)C)NC(=O)[C@H](CCCNC(=N)N)NC(=O)[C@H](CCC(N)=O)NC(=O)[C@@H](NC(=O)[C@@H](NC(=O)[C@@H]1CSSC[C@H](NC(=O)CN)C(=O)N[C@@H](CCCNC(=N)N)C(=O)N[C@@H]([C@@H](C)O)C(=O)NCC(=O)N[C@@H]([C@@H](C)O)C(=O)N1)[C@@H](C)O)C(C)C)C(=O)N[C@@H](Cc1ccc(O)cc1)C(=O)N[C@@H](CCC(N)=O)C(=O)N[C@@H](Cc1ccccc1)C(=O)N[C@H](C(=O)N[C@@H](CC(=O)O)C(=O)N[C@@H](CCCCN)C(=O)N[C@@H](CC(=O)O)C(=O)N[C@@H](CCCCN)C(=O)N[C@@H](CC(=O)O)C(=O)N[C@@H](CC(N)=O)C(=O)N[C@H](C(=O)N[C@@H](C)C(=O)N1CCC[C@H]1C(=O)N[C@@H](CCCNC(=N)N)C(=O)N[C@H](C(=O)N[C@@H](CC(N)=O)C(=O)N[C@H](C(=O)N[C@@H](CO)C(=O)N1CCC[C@H]1C(=O)N[C@@H](CCC(N)=O)C(=O)NCC(=O)N[C@@H](Cc1ccc(O)cc1)C(N)=O)[C@@H](C)CC)[C@@H](C)O)C(C)C)[C@@H](C)O [compound 199] (H-GCRTGTCTVQRLAHQIYQFTDKDKDNVAPRTNISPQGY-NH2; disulfide 2-7; N-terminus assumed)
4 | – | 0.036 nM | CC[C@H](C)[C@H](NC(=O)[C@H](CC(N)=O)NC(=O)[C@@H](NC(=O)[C@H](CCCNC(=N)N)NC(=O)[C@@H]1CCCN1C(=O)[C@H](C)NC(=O)[C@@H](NC(=O)[C@H](CC(N)=O)NC(=O)[C@H](CC(=O)O)NC(=O)[C@H](CCCCN)NC(=O)[C@H](CC(=O)O)NC(=O)[C@H](CCCCN)NC(=O)[C@H](CC(=O)O)NC(=O)[C@@H](NC(=O)[C@H](Cc1ccccc1)NC(=O)[C@H](CCC(N)=O)NC(=O)[C@H](Cc1ccc(O)cc1)NC(=O)[C@@H](NC(=O)[C@H](CCC(N)=O)NC(=O)[C@H](Cc1c[nH]cn1)NC(=O)[C@H](C)NC(=O)[C@H](CC(C)C)NC(=O)[C@H](CCCNC(=N)N)NC(=O)[C@H](CCC(N)=O)NC(=O)[C@@H](NC(=O)[C@@H](NC(=O)[C@@H]1CSSC[C@H](NC(=O)CN)C(=O)N[C@@H](CCCNC(=N)N)C(=O)N[C@@H]([C@@H](C)O)C(=O)NCC(=O)N[C@@H]([C@@H](C)O)C(=O)N1)[C@@H](C)O)C(C)C)[C@@H](C)CC)[C@@H](C)O)C(C)C)[C@@H](C)O)C(=O)NCC(=O)N1CCC[C@H]1C(=O)N[C@@H](CC(N)=O)C(=O)NCC(=O)N[C@@H](Cc1ccc(O)cc1)C(N)=O [compound 142] (H-GCRTGTCTVQRLAHQIYQFTDKDKDNVAPRTNIGPNGY-NH2; disulfide 2-7; N-terminus assumed)
5 | – | 0.032 nM | CC[C@H](C)[C@H](NC(=O)[C@H](CC(N)=O)NC(=O)[C@@H](NC(=O)[C@H](CCCNC(=N)N)NC(=O)[C@@H]1CCCN1C(=O)[C@H](C)NC(=O)[C@@H](NC(=O)[C@H](CC(N)=O)NC(=O)[C@H](CC(=O)O)NC(=O)[C@H](CCCCN)NC(=O)[C@H](CC(=O)O)NC(=O)[C@H](CCCCN)NC(=O)[C@H](CC(=O)O)NC(=O)[C@@H](NC(=O)[C@H](Cc1ccccc1)NC(=O)[C@H](CCC(N)=O)NC(=O)[C@H](Cc1ccc(O)cc1)NC(=O)[C@@H](NC(=O)[C@H](CCC(N)=O)NC(=O)[C@H](Cc1c[nH]cn1)NC(=O)[C@H](C)NC(=O)[C@H](CC(C)C)NC(=O)[C@H](CCCNC(=N)N)NC(=O)[C@H](CCC(N)=O)NC(=O)[C@@H](NC(=O)[C@@H](NC(=O)[C@@H]1CSSC[C@H](NC(=O)CN)C(=O)N[C@@H](CCCNC(=N)N)C(=O)N[C@@H](Cc2ccccc2)C(=O)NCC(=O)N[C@@H]([C@@H](C)O)C(=O)N1)[C@@H](C)O)C(C)C)[C@@H](C)CC)[C@@H](C)O)C(C)C)[C@@H](C)O)C(=O)NCC(=O)N1CCC[C@H]1C(=O)N[C@@H](CC(N)=O)C(=O)NCC(=O)N[C@@H](Cc1ccc(O)cc1)C(N)=O [compound 381] (H-GCRFGTCTVQRLAHQIYQFTDKDKDNVAPRTNIGPNGY-NH2; disulfide 2-7; N-terminus assumed)

— patent US12139520B2 (priority 2020, dated 2024)
